Test results reported in US20220409617A1, “Drug Formulations and Methods of Treatment for Metabolic Disorders” (The Regents of the University of California, priority 2019, published 2022).

System: DRP1
Assay: DRP1 recruitment to mitochondria (DRP1/citrate synthase co-localization) and DRP1 western blot
Format: cell-based, mouse
Conditions: MEFs
Description: Mature adipocytes were serum starved for 16 h then treated with vehicle, ceramide (50 or 100 μM), or sphingolipid-like compound 893 (5 or 10 μM) in serum-free media supplemented with 0.2% fatty-acid free BSA for 3 h after which 100 nM insulin was added for 15 min. To determine total DRP1 protein levels, 100,000 MEFs were seeded into a 6-well plate for 16 h, pre-treated for 3 h with vehicle or sphingolipid-like compound 893 (5 μM) followed by a 3 h incubation in 1% BSA+ethanol or BSA-palmitate (250 μM). Cells were washed once with cold PBS, then lysed in cold RIPA buffer (140 mM NaCl, 10 mM Tris pH 8.0, 1% Triton X-100, 0.1% SDS, 1% sodium deoxycholate) with cOmplete™ protease inhibitor (Cat no. 11697498001, Millipore Sigma, St. Louis, Mo.) and phosSTOP™ phosphatase inhibitor (Cat no. 4906837001, Millipore Sigma). Samples were incubated on ice for 10 min and insoluble material removed by centrifugation (9000×g for 10 min at 4° C.). Protein content was quantified in the supernatant using the Pierce™ BCA Protein Assay Kit (Thermo-Fisher Scientific, Waltham, Mass.). Equal amounts of protein were prepared in NuPAGE® LDS Sample Buffer (NP0007, Invitrogen) containing 50 mM DTT, and heated at 70° C. for 10 min. Proteins were resolved on a NuPAGE® 4-12% Bis-Tris protein gel (NP0336, Invitrogen, Carlsbad, Calif.) and subsequently transferred to a nitrocellulose membrane. Membranes were blocked in 5% BSA in TBST for 1 h, then probed with primary antibodies overnight at 4° C. […] Band intensity was quantified using Image Studio Lite V5.2 software (Li-COR).
MEFs were washed twice with PBS and fixed with 4% paraformaldehyde for 10 min at RT. […] NADH/NADPH autofluorescence was detected with 740 nm excitation and 450±50 nm detectors using a Mai Tai two-photon laser. Fluorescence microscopy was performed on a Zeiss LSM 780 confocal using a 63× oil objective with a […] numerical aperture (NA) or using a Nikon TE2000-S inverted epifluorescence microscope with a 100× oil objective (1.3 NA) and a Photometrics CoolSNAP ES2 monochrome CCD camera. […]

SMILES: CCCCCCCCc1ccc([C@H]2CCN[C@@H]2CO)cc1.Cl [compound 893]
- DRP1 recruitment to mitochondria in response to palmitate (893 5 μM or YM201636 800 nM 3 h, then palmitate 250 μM 3 h): prevented the recruitment of the GTPase that mediates fission, DRP1, to mitochondrial membranes
- DRP1 protein expression levels (893 5 μM, palmitate 250 μM, western blot): without affecting DRP1 protein expression levels
